PubChem BioAssay AID256 (DTP/NCI, 2004)
Several values for one entry are separate records, joined by “and”; a condition that tells them apart may be missing. Identical values can stand only once. Inconclusive results and toxic doses are left out. Rule for the calls: active = survival T/C of 150% or more; inactive = T/C below 125% in these data.

System: CD2F1 mice, L1210 leukemia ip, survival T/C
Assay: NCI In Vivo Anticancer Drug Screen. Data for tumor model L1210 Leukemia (intraperitoneal) in CD2F1 (CDF1) mice
Conditions: higher = longer survival
In short: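 Activity against a transplanted murine tumor was judged by comparing the compound group with a vehicle group. The outcome in the treated animals was divided by that in the controls.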

[1] = endpoint: mean survival time, dose: 100.0 mg/kg/injection, schedule: Q01DX009 (ip), vehicle: saline with Tween-80
[2] = endpoint: mean survival time, dose: 200.0 mg/kg/injection, schedule: Q01DX009 (ip), vehicle: saline with Tween-80
[3] = endpoint: mean survival time, dose: 100.0 mg/kg/injection, schedule: Q04DX003 (ip), vehicle: saline with Tween-80
[4] = endpoint: mean survival time, dose: 200.0 mg/kg/injection, schedule: Q04DX003 (ip), vehicle: saline with Tween-80
[5] = endpoint: mean survival time, dose: 400.0 mg/kg/injection, schedule: Q04DX003 (ip), vehicle: saline with Tween-80
[6] = endpoint: mean survival time, dose: 100.0 mg/kg/injection, schedule: Q01DX001 (ip), vehicle: saline with Tween-80
[7] = endpoint: mean survival time, dose: 200.0 mg/kg/injection, schedule: Q01DX001 (ip), vehicle: saline with Tween-80
[8] = endpoint: mean survival time, dose: 400.0 mg/kg/injection, schedule: Q01DX001 (ip), vehicle: saline with Tween-80
[9] = endpoint: mean survival time, dose: 100.0 mg/kg/injection, schedule: Q04DX003 (ip), vehicle: saline
[10] = endpoint: mean survival time, dose: 200.0 mg/kg/injection, schedule: Q04DX003 (ip), vehicle: saline
[11] = endpoint: mean survival time, dose: 50.0 mg/kg/injection, schedule: Q04DX003 (ip), vehicle: saline
[12] = endpoint: mean survival time, dose: 400.0 mg/kg/injection, schedule: Q01DX009 (ip), vehicle: saline with Tween-80

Measured: T/C

Nc1cccc2scnc12
inactive: [1] 104 % of control | [2] 96 % of control

COc1cc(CO)ccc1OCc1ccccc1
inactive: [3] 98 % of control | [4] 96 % of control | [5] 105 % of control

O=S(=O)(F)c1ccc(-c2cc(Cl)c3cc(F)ccc3n2)cc1
inactive: [6] 98 % of control | [7] 98 % of control | [8] 94 % of control

CC(=O)OC1CCCC(OC(C)=O)C1OC(C)=O (configuration not stated)
inactive: [9] 107 % of control | [10] 96 % of control | endpoint: mean survival time, dose: 400.0 mg/kg/injection, schedule: Q04DX003 (ip), vehicle: saline 101 % of control

C/C=C1/OC(n2cnc3c(N)ncnc32)C(O)C1O (configuration not stated)
inactive: endpoint: mean survival time, dose: 10.0 mg/kg/injection, schedule: Q01DX005 (ip), vehicle: distilled water + Tween-80 103 % of control | endpoint: mean survival time, dose: 20.0 mg/kg/injection, schedule: Q01DX005 (ip), vehicle: distilled water + Tween-80 107 % of control | endpoint: mean survival time, dose: 40.0 mg/kg/injection, schedule: Q01DX005 (ip), vehicle: distilled water + Tween-80 95 % of control | endpoint: mean survival time, dose: 80.0 mg/kg/injection, schedule: Q01DX005 (ip), vehicle: distilled water + Tween-80 100 % of control | endpoint: mean survival time, dose: 160.0 mg/kg/injection, schedule: Q01DX005 (ip), vehicle: distilled water + Tween-80 97 % of control

CN(C)c1ccccc1C1=CCCCC1
inactive: [11] 96 % of control | [9] 98 % of control | [10] 104 % of control

COc1ccc(/C=N\NC(=O)CNC(=O)Nc2cccc(C(F)(F)F)c2)cc1OC
inactive: endpoint: mean survival time, dose: 12.5 mg/kg/injection, schedule: Q01DX009 (ip), vehicle: saline with Tween-80 87 % of control | [1] 96 % of control | [2] 96 % of control

CN(N=O)C(=O)NCC1OC(OC2(CNC(=O)N(C)N=O)OC(CNC(=O)N(C)N=O)C(O)C2O)C(O)C(O)C1O (configuration not stated)
inactive: endpoint: mean survival time, dose: 12.5 mg/kg/injection, schedule: Q01DX009 (ip), vehicle: water 102 % of control | endpoint: mean survival time, dose: 25.0 mg/kg/injection, schedule: Q01DX009 (ip), vehicle: water 104 % of control | endpoint: mean survival time, dose: 50.0 mg/kg/injection, schedule: Q01DX009 (ip), vehicle: water 110 % of control | endpoint: mean survival time, dose: 100.0 mg/kg/injection, schedule: Q01DX009 (ip), vehicle: water 117 % of control

Cc1cc[n+](CCc2ccccc2)cc1
inactive: endpoint: mean survival time, dose: 25.0 mg/kg/injection, schedule: Q01DX009 (ip), vehicle: saline with Tween-80 112 % of control | endpoint: mean survival time, dose: 25.0 mg/kg/injection, schedule: Q04DX003 (ip), vehicle: saline 95 % of control | endpoint: mean survival time, dose: 50.0 mg/kg/injection, schedule: Q01DX009 (ip), vehicle: saline with Tween-80 98 % of control | [11] 96 % of control | [9] 94 % of control

O=C(O)CCCCCCCC(=O)O
inactive: endpoint: median survival time, dose: 6.25 mg/kg/injection, schedule: Q01DX009 (ip), vehicle: distilled water + Tween-80 101 % of control | endpoint: median survival time, dose: 12.5 mg/kg/injection, schedule: Q01DX009 (ip), vehicle: distilled water + Tween-80 95 % of control | endpoint: median survival time, dose: 25.0 mg/kg/injection, schedule: Q01DX009 (ip), vehicle: distilled water + Tween-80 101 % of control | endpoint: median survival time, dose: 50.0 mg/kg/injection, schedule: Q01DX009 (ip), vehicle: distilled water + Tween-80 89 % of control | endpoint: median survival time, dose: 100.0 mg/kg/injection, schedule: Q01DX009 (ip), vehicle: distilled water + Tween-80 97 % of control

Cc1oc([N+](=O)[O-])cc1C(=O)O
inactive: [3] 102 % of control | [4] 102 % of control | [5] 115 % of control

COc1ccc(C(=O)C(c2ccccc2)c2ccccc2)cc1
inactive: [3] 93 % of control | [4] 94 % of control | [5] 90 % of control

CCCC1CC[N-]CC1.CCCC1CC[N-]CC1.[Cl][Cu][Cl]
inactive: endpoint: mean survival time, dose: 3.13 mg/kg/injection, schedule: Q01DX009 (ip), vehicle: saline 96 % of control | endpoint: mean survival time, dose: 12.5 mg/kg/injection, schedule: Q01DX009 (ip), vehicle: saline 94 % of control

COc1cc(NC(C)=O)ccn1
inactive: [1] 95 % of control | [2] 96 % of control | [12] 102 % of control

COc1ccc2nc3cc(Cl)ccc3c(NCCC[N+](C)(C)CCCCCCCCCC[N+](C)(C)CCCNc3c4ccc(Cl)cc4nc4ccc(OC)cc34)c2c1
inactive: endpoint: mean survival time, dose: 6.25 mg/kg/injection, schedule: Q01DX009 (ip), vehicle: saline with Tween-80 105 % of control

BrN1CCCCC1
inactive: endpoint: mean survival time, dose: 100.0 mg/kg/injection, schedule: Q04DX002 (ip), vehicle: saline 103 % of control | endpoint: mean survival time, dose: 200.0 mg/kg/injection, schedule: Q04DX002 (ip), vehicle: saline 122 % of control | endpoint: mean survival time, dose: 400.0 mg/kg/injection, schedule: Q04DX002 (ip), vehicle: saline 103 % of control

Cc1ccc2c(c1)CC(C)(C)O2
inactive: endpoint: mean survival time, dose: 50.0 mg/kg/injection, schedule: Q01DX001 (ip), vehicle: Klucel (hydroxypropylcellulose) (HPC) 102 % of control | endpoint: mean survival time, dose: 100.0 mg/kg/injection, schedule: Q01DX001 (ip), vehicle: Klucel (hydroxypropylcellulose) (HPC) 93 % of control | endpoint: mean survival time, dose: 200.0 mg/kg/injection, schedule: Q01DX001 (ip), vehicle: Klucel (hydroxypropylcellulose) (HPC) 102 % of control

Cc1cc(O)c2c(c1)C(=O)c1cccc(O)c1C2=O
inactive: endpoint: mean survival time, dose: 6.25 mg/kg/injection, schedule: Q01DX001 (ip), vehicle: saline 115 % of control | endpoint: mean survival time, dose: 12.5 mg/kg/injection, schedule: Q01DX001 (ip), vehicle: saline 112 % of control | endpoint: mean survival time, dose: 25.0 mg/kg/injection, schedule: Q01DX001 (ip), vehicle: saline 102 % of control

O=C(CC(=O)Nc1ccc([N+](=O)[O-])cc1)Nc1ccc([N+](=O)[O-])cc1
inactive: [1] 91 % of control | [2] 86 % of control | [12] 89 % of control

c1ccc2c(c1)Nc1ccncc1S2
inactive: [3] 94 % of control | [4] 96 % of control | [5] 112 % of control

O=C(CC1CCCCN1)CC1CCCCN1 (configuration not stated)
inactive: endpoint: median survival time, dose: 25.0 mg/kg/injection, schedule: Q04DX003 (ip), vehicle: saline 100 % of control | endpoint: median survival time, dose: 50.0 mg/kg/injection, schedule: Q04DX003 (ip), vehicle: saline 100 % of control | endpoint: median survival time, dose: 100.0 mg/kg/injection, schedule: Q04DX003 (ip), vehicle: saline 90 % of control | endpoint: median survival time, dose: 200.0 mg/kg/injection, schedule: Q04DX003 (ip), vehicle: saline 90 % of control

[CH3][Sb]([CH3])([CH3])([O]C(=O)CC#N)[O]C(=O)CC#N
inactive: [3] 92 % of control | [4] 92 % of control | [5] 97 % of control

C[Si](O)(O)CCCCNC(=O)/C=C\C(=O)O
inactive: endpoint: mean survival time, dose: 100.0 mg/kg/injection, schedule: Q04DX003 (ip), vehicle: other 89 % of control | endpoint: mean survival time, dose: 200.0 mg/kg/injection, schedule: Q04DX003 (ip), vehicle: other 93 % of control | endpoint: mean survival time, dose: 400.0 mg/kg/injection, schedule: Q04DX003 (ip), vehicle: other 89 % of control

Nc1nc2c(ncn2-c2ccc(-c3ccccc3)cc2)c(=O)[nH]1
inactive: [6] 93 % of control and 108 % of control | endpoint: mean survival time, dose: 100.0 mg/kg/injection, schedule: Q04DX002 (ip), vehicle: saline with Tween-80 97 % of control | [7] 87 % of control and 89 % of control | endpoint: mean survival time, dose: 200.0 mg/kg/injection, schedule: Q04DX002 (ip), vehicle: saline with Tween-80 93 % of control | [8] 93 % of control | endpoint: mean survival time, dose: 400.0 mg/kg/injection, schedule: Q04DX002 (ip), vehicle: saline with Tween-80 89 % of control

O=S(=O)(N(c1ccccc1)S(=O)(=O)C(F)(F)F)C(F)(F)F
inactive: endpoint: mean survival time, dose: 50.0 mg/kg/injection, schedule: Q01DX009 (ip), vehicle: Klucel (hydroxypropylcellulose) (HPC) 91 % of control | endpoint: mean survival time, dose: 100.0 mg/kg/injection, schedule: Q01DX009 (ip), vehicle: Klucel (hydroxypropylcellulose) (HPC) 88 % of control | endpoint: mean survival time, dose: 200.0 mg/kg/injection, schedule: Q01DX009 (ip), vehicle: Klucel (hydroxypropylcellulose) (HPC) 88 % of control

Cc1cc2c(cc1C)C(=O)C(N(C)C)=CC2=O
inactive: [1] 102 % of control | [2] 98 % of control | [12] 91 % of control

c1ccc(CCC2=Nc3ccccc3CO2)cc1
inactive: [3] 102 % of control | [4] 103 % of control | [5] 102 % of control

O=[N+]([O-])c1ccc(-c2ccccc2)c([As](=O)(O)O)c1
inactive: endpoint: mean survival time, dose: 6.25 mg/kg/injection, schedule: Q04DX002 (ip), vehicle: saline with Tween-80 124 % of control | endpoint: mean survival time, dose: 12.5 mg/kg/injection, schedule: Q04DX002 (ip), vehicle: saline with Tween-80 116 % of control | endpoint: mean survival time, dose: 25.0 mg/kg/injection, schedule: Q04DX002 (ip), vehicle: saline with Tween-80 104 % of control

Nc1nc(=O)n(CCCOc2ccc([N+](=O)[O-])c(Cl)c2)cc1-c1ccc(Cl)c(Cl)c1
inactive: [7] 90 % of control
